Drawing on patent US11505548B2, “Heterocyclic compounds and their use for treatment of helminthic infections and diseases” (Celgene Corporation, priority 2019, dated 2022), this text covers IC50 for 27 molecules.

Like-named read-outs stand apart in the source and are kept apart here.

This assay concerns Onchocerca gutturosa Adult Male Worms. The assay is described as follows: Onchocerciasis in vitro screening model, worm motility score. Type of assay: cell-based. Particulars: read-out: O. gutturosa activity level (IC50 or MED).
The mark [1] stands for this setting: in vitro, Onchocerca gutturosa adult male worms, class A/B/C.
The mark [2] stands for this setting: Onchocerca gutturosa, Table 1 O. gutturosa, levels A/B/C, motility or MTT readout not specified.

For `O=C1CCCN1c1cccnc1Nc1nc(-c2ccc(NC34CC(C3)C4)cn2)ns1` [Compound 204, 1-(2-(3-(5-(bicyclo [1.1.1]pentan-1-ylamino)pyridin-2-yl)-1,2,4-thiadiazol-5-ylamino)pyridin-3-yl)pyrrolidin-2-one], the IC50 under setting [1] was 500 to 5000 nM.

For `COc1ccnc(-c2nsc(Nc3ccc(C(C)C)cn3)n2)c1` [Compound 177, N-(5-isopropyl-pyridin-2-yl)-3-(4-methoxy-pyridin-2-yl)-1,2,4-thiadiazol-5-amine], under setting [2], the IC50 is < 200 nM.

`CC(=O)N(C)c1cccnc1Nc1nc(-c2ccc(NC34CC(C3)C4)cn2)ns1` [Compound 207, N-(2-(3-(5-(bicyclo [1.1.1]pentan-1-ylamino)pyridin-2-yl)-1,2,4-thiadiazol-5-ylamino)pyridin-3-yl)-N-methylacetamide]: the IC50 under setting [1] was 500 to 5000 nM.

In the case of `CC(=O)N(C)c1cnc(Nc2nc(-c3ccc(OC(C)C)cn3)ns2)c(C)c1` [Compound 297, N-(6-(3-(5-isopropoxypyridin-2-yl)-1,2,4-thiadiazol-5-ylamino)-5-methylpyridin-3-yl)-N-methylacetamide], the IC50 under setting [1] lay within 200 to 500 nM.

In the case of `Cc1cccnc1Nc1nc(-c2ccc(O[C@@H]3CCN(C4CC4)C[C@H]3F)cn2)ns1` [Compound 91, 3-(5-((3R,4R)-1-cyclopropyl-3-fluoro-piperidin-4-yloxy)pyridin-2-yl)-N-(3-methylpyridin-2-yl)-1,2,4-thiadiazol-5-amine], the IC50 under setting [2] is < 200 nM.

Turning to `COc1cccnc1Nc1nc(-c2cc(C(F)(F)F)c(OC3CC3)cn2)ns1` [Compound 134, 3-(5-cyclo-propoxy-4-(trifluoromethyl)pyridin-2-yl)-N-(3-methoxy-pyridin-2-yl)-1,2,4-thiadiazol-5-amine], under setting [2], the IC50 is 500 to 5000 nM.

Take `Cc1cccnc1Nc1nc(-c2ccc(OC3CC3)cn2)n(C)n1` [Compound 103, N-(5-(5-cyclopropoxy-pyridin-2-yl)-1-methyl-1H-1,2,4-triazol-3-yl)-3-methyl-pyridin-2-amine]: the IC50 under setting [2] was < 200 nM.

In the case of `Cc1cccnc1Nc1nc(-c2ccc(OCC3CC3)cn2)ns1` [Compound 73, 3-(5-(cyclopropyl-methoxy)pyridin-2-yl)-N-(3-methylpyridin-2-yl)-1,2,4-thiadiazol-5-amine], under setting [2], the IC50 was < 200 nM.

Turning to `CC(C)Oc1ccc(-c2nsc(Nc3ncccc3C3CC3)n2)nc1` [Compound 76, N-(3-cyclopropyl-pyridin-2-yl)-3-(5-isopropoxy-pyridin-2-yl)-1,2,4-thiadiazol-5-amine], under setting [2], the IC50 was < 200 nM.

Turning to `COC(=O)c1cc(-c2nsc(Nc3ncccc3C(C)C)n2)ncc1OC(C)C` [Compound 197, methyl 5-isopropoxy-2-(5-(3-isopropylpyridin-2-ylamino)-1,2,4-thiadiazol-3-yl)isonicotinate], the concentration for half-maximal inhibition (IC50) under setting [2] was < 200 nM.

Regarding `Cc1cccnc1Nc1nc(-c2ccc(C(=O)N3CCN(C)CC3)cn2)ns1` [Compound 57, (4-methyl-piperazin-1-yl)(6-(5-(3-methyl-pyridin-2-ylamino)-1,2,4-thiadiazol-3-yl)pyridin-3-yl) methanone], under setting [2], the IC50 fell in the range of 500 to 5000 nM.

Regarding `CC(=O)N(C)c1cnc(Nc2nc(-c3cc(OC(C)C)ccn3)ns2)c(C)c1` [Compound 288, N-(6-(3-(4-isopropoxypyridin-2-yl)-1,2,4-thiadiazol-5-ylamino)-5-methylpyridin-3-yl)-N-methylacetamide], the IC50 under setting [1] lay in the range of 500 to 5000 nM.

As to `Cc1cccnc1Nc1nc(-c2ccc(OC(C)C)cn2)n[nH]1` [Compound 69, N-(3-(5-isopropoxy-pyridin-2-yl)-1H-1,2,4-triazol-5-yl)-3-methylpyridin-2-amine], the IC50 under setting [2] lay within 200 to 500 nM.

Regarding `Cc1cccnc1Nc1nc(-c2cc(C(C)C)c(C(=O)N(C)C)cn2)ns1` [Compound 230, 4-isopropyl-N,N-dimethyl-6-(5-(3-methyl-pyridin-2-ylamino)-1,2,4-thiadiazol-3-yl)nicotinamide], the IC50 under setting [1] was 500 to 5000 nM.

Take `CNC(=O)c1cccnc1Nc1nc(-c2ccc(OC(C)C)cn2)ns1` [Compound 189, 2-(3-(5-isoprop-oxypyridin-2-yl)-1,2,4-thiadiazol-5-ylamino)-N-methyl-nicotinamide]: under setting [2], the IC50 lay within 500 to 5000 nM.

Regarding `CC(C)c1cccnc1Nc1nc(-c2cc(C(F)(F)F)c(OC3CC3)cn2)ns1` [Compound 109, 3-(5-cyclopropoxy-4-(trifluoromethyl)pyridin-2-yl)-N-(3-isopropyl-pyridin-2-yl)-1,2,4-thiadiazol-5-amine], the IC50 under setting [2] is < 200 nM.

With `COc1ccc(Nc2nnc(-c3cc(OC4CCCCC4)ccn3)s2)nc1` [Compound 233, 5-(4-(cyclo-hexyloxy)pyridin-2-y1)-N-(5-methoxypyridin-2-yl)-1,3,4-thiadiazol-2-amine], under setting [1], the IC50 was < 200 nM.

In the case of `Cc1cccnc1Nc1nc(-c2ccc(OC3CC4(C3)CN(C)C4)cn2)ns1` [Compound 88, 3-(5-(2-methyl-2-azaspiro[3.3]heptan-6-yloxy)pyridin-2-yl)-N-(3-methylpyridin-2-yl)-1,2,4-thiadiazol-5-amine], under setting [2], the IC50 lay in the range of 500 to 5000 nM.

As to `CC(C)Oc1cnc(-c2nsc(Nc3ncccc3C(F)(F)F)n2)cc1C(N)=O` [Compound 220, 5-isopropoxy-2-(5-(3-(trifluoromethyl)pyridin-2-ylamino)-1,2,4-thiadiazol-3-yl)isonico-tinamide], the IC50 under setting [1] lay within 200 to 500 nM.

Consider `CC(C)Oc1ccc(-c2nsc(Nc3ncccc3C(=O)N(C)C)n2)nc1` [Compound 188, 2-(3-(5-isoprop-oxypyridin-2-yl)-1,2,4-thiadiazol-5-ylamino)-N,N-dimethyl nicotinamide], for which the IC50 under setting [2] was in the range of 200 to 500 nM.

On to `Cc1ccnc(-c2nsc(Nc3ncccc3C(F)(F)F)n2)c1` [Compound 37, 3-(4-methyl-pyridin-2-yl)-N-(3-(trifluoro-methyl)pyridin-2-yl)-1,2,4-thiadiazol-5-amine], for which the IC50 under setting [2] was < 200 nM.

With `FC(F)(F)c1ccc(Nc2nc(-c3ccccn3)ns2)nc1` [Cmpd 1], the IC50 under setting [2] was < 200 nM.

Regarding `CCOc1ccc(Nc2nc(-c3cc(OC)ccn3)no2)nc1` [Compound 35, N-(5-ethoxy-pyridin-2-yl)-3-(4-methoxy-pyridin-2-yl)-1,2,4-oxadiazol-5-amine], the IC50 under setting [2] is < 200 nM.

For `CN(C)c1cccnc1Nc1nc(-c2ccc(OC3CC3)cn2)ns1` [Compound 78, N2-(3-(5-cyclopropoxy-pyridin-2-yl)-1,2,4-thiadiazol-5-yl)-N3,N3-dimethyl-pyridine-2,3-diamine], the concentration for half-maximal inhibition (IC50) under setting [2] fell in the range of 500 to 5000 nM.

For `Cc1cccnc1Nc1nc(-c2ccc(OC3CC3)cn2)ns1` [Compound 38, 3-(5-cyclo-propoxypyridin-2-yl)-N-(3-methyl-pyridin-2-yl)-1,2,4-thiadiazol-5-amine], the IC50 under setting [2] is < 200 nM.

Regarding `CC(C)Oc1ccc(-c2nsc(Nc3ncc(C(F)(F)F)cc3N(C)C(=O)C3CC3)n2)nc1` [Compound 248, N-(2-(3-(5-isopropoxy-pyridin-2-yl)-1,2,4-thiadiazol-5-ylamino)-5-(trifluoro-methyl)pyridin-3-yl)-N-methylcyclo-propanecarbox-amide], the IC50 under setting [1] fell in the range of 500 to 5000 nM.

As for `CC(C)Oc1ccc(-c2nsc(N(C)c3ncccc3C(C)C)n2)nc1` [Compound 130, 3-(5-isopropoxy-pyridin-2-yl)-N-(3-isopropy-lpyridin-2-yl)-N-methyl-1,2,4-thiadiazol-5-amine], the IC50 under setting [2] is 500 to 5000 nM.
